For experiment [1], the target named is Ded1p (yeast homolog of DDX3) (Saccharomyces cerevisiae, UniProt P06634). The experiment in a line: RNA helicase (unwinding) assay. It counts as biochemical. Conditions: Ded1p 80 nM, 100 μM ATP; 50, 100, 200 nM tested. As for the experimental part:
The RNA helicase assay was performed as described earlier (Sengoku et al, [2006]) with a few modifications. Briefly, RNA oligomers R41 (unlabeled 41 nt) 5′-[…]-[…]-3′ and R13 (FAM-labeled 13 nt) 5′-[…]-3′ were annealed to form […] RNA duplexes and incubated with R13C (unlabeled 13-nt quencher RNA complementary to R13) 5′-[…]-3′, along with Ded1p protein (80 nM), 100 μM ATP, and […] RNasin (Promega, Madison, WI, USA) in reaction buffer containing 50 mM Tris, pH 7.8, 2 mM MgCl2, 3% glycerol, and 1 mM DTT for various times at room temperature. Reactions were stopped after 30-min incubation at room temperature with stop solution containing proteinase K (1 mg/ml) and SDS (0.6%). Reactions were loaded on acrylamide gels and bands visualized using a Typhoon scanner (GE Healthcare, Piscataway, NJ, USA).

A further experiment deals with A549 cells. The experiment in a line: Cell cycle analysis by flow cytometry. Conditions: 0, 2, 4, and 6 μM, dose-dependent. It counts as cell-based, human. As for the experimental part: A549 and H1299 cells were plated at 1 × 10^5 cells per well of a 6-well plate. Cell cycle was carried out as previously described (Vesuna et al, [2012]). Briefly, cells were trypsinized 24 h after plating and fixed in 70% ethanol overnight at −20°C. Fixed cells were washed with PBS and resuspended in DNA-staining solution (5 μg/ml propidium iodide, 0.5 mg/ml RNase A) for 1 h at room temperature. Cell cycle acquisition was performed on a FACScan I or FACSCalibur instrument (BD Biosciences, San Jose, CA, USA). Independent experiments were repeated three times. Data were analyzed using FlowJo software (Tree Star Inc., Ashland, OR, USA).
In general terms: In flow cytometry, cells or beads pass a laser one at a time.

Ded1p (yeast homolog of DDX3), sequence (P06634 whole entry): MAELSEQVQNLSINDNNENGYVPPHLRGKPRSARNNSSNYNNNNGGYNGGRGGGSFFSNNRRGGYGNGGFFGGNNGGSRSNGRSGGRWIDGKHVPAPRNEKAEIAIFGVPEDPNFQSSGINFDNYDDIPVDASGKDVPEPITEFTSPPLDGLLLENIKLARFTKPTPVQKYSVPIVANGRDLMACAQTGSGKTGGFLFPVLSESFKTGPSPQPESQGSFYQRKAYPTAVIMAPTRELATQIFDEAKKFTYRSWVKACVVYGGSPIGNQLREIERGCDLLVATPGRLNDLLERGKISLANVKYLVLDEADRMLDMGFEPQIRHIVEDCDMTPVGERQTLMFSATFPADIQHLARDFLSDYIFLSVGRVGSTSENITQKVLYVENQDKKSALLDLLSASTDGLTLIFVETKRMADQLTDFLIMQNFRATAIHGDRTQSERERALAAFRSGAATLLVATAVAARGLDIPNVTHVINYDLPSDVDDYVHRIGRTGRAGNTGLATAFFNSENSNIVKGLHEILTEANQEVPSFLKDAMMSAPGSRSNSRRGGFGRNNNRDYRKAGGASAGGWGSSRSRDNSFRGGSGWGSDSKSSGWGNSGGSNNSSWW

For the substance “diimidazo[4,5-d:4′,5′-f]-[1,3]diazepine [RK-33]”, the “concentration from which unwinding activity is reduced (dose-dependent)” value in experiment [1] is recorded as 50 nM. The cell cycle effect result in the experiment on A549 cells is reported as “G1 arrest”.

The values are drawn from paper PMC4492822 (EMBO Molecular Medicine, 2015).
